Legend:
[1] = tested on: termite workers and soldiers; assay: Non-choice tests of antibiotics and a fungus inhibitor in bait matrix; type: in vivo; details: 100 ppm in bait matrix; after three weeks of exposure
Experimental: Non-choice tests using five different antibiotics (streptomycin sulfate, rifampicin, albendazole, neomycin sulfate, and antimycotic) and a fungus inhibitor (sorbic acid) were conducted at four different concentrations (100, 250, 500, and 1000 ppm). Individual chemicals were mixed with the bait matrix of Example 3 at each concentration and 10 g samples of each were transferred to sterile plastic Petri dishes and exposed to groups of 20 termite workers and two soldiers. Five repetitions per treatment were done. The dishes were kept in a Percival incubator under dark conditions at 27±1° C. and 80% relative humidity. A control containing no antibiotic or fungus inhibitor was prepared and kept under the same conditions as the treatments. Time required to reach 100% mortality was recorded.

termite = details: 125 ppm hexaflumuron in a matrix composed of spruce sawdust; cited from earlier work
[2] = tested on: Formosan subterranean termite colony; assay: Pair choice test, yellow pine versus bait matrix mixed with hexaflumuron; type: in vivo, Coptotermes formosanus; details: 50 ppm hexaflumuron in bait matrix; period of 10 weeks; colony of 1500
Experimental: To determine the acceptance by the Formosan subterranean termite of the bait matrix of Example 3 with toxic chemicals added, a pair choice test between a 25 g piece of yellow pine and an equivalent amount of bait matrix mixed with 50-ppm hexaflumuron was performed. Both pine and bait matrix were exposed to a Formosan termite colony composed of 1500 soldiers, workers, and nymphs, housed in a plastic Sterilite container containing 2L topsoil:sand (1:1) at 40% relative humidity. The treatment box was maintained under dark conditions at 26±3° C. A control, 12″ yellow pine wood stakes without hexaflumuron, was prepared and kept at the same conditions as the treatment.

Molecule	Mortality [1]	Mortality compared with 50 ppm in bait matrix (100% in 10 weeks) (termite)	Mortality [2]
neomycin sulfate	40%	–	–
CCCSc1ccc2nc(NC(=O)OC)[nH]c2c1 [albendazole]	40%	–	–
C/C=C/C=C/C(=O)O [sorbic acid]	33%	–	–
O=C(NC(=O)c1c(F)cccc1F)Nc1cc(Cl)c(OC(F)(F)C(F)F)c(Cl)c1 [hexaflumuron]	–	equivalent	100%
